Biological target: T1, Pd2,6ST S232L/T356S/W361F (Photobacterium damselae, UniProt O66375, S232L/T356S/W361F)
T1 construct: (Δ15Pd2, 6ST); His6 tag with thrombin site ([…]) (N); made in house; host or cells: E. coli BL21(DE3)
Assay: Linkage specificity assays (relative sialidase activity towards sialosides, HPLC)
Assay type: biochemical
Conditions: for Relative sialidase activity: of Pd2,6ST S232L/T356S/W361F towards the sialoside, 1 mM substrate, 0.5 mM CMP, pH 6.0, 37° C., 30 minutes, relative to compound 2
Experimental: Reactions were performed in duplicate at 37° C. for 30 minutes in MES buffer (100 mM, pH 6.0), MgCl2 (10 mM), CMP (0.5 mM), and 1 mM substrate. Enzyme concentrations were 0.030 μM for 2, 0.30 μM for 7, 3.0 μM 6, and 30.0 μM for 3-5. These conditions provided testing at initial rates (1.2-24% yield) for each substrate. Reactions were stopped by adding an equal volume of pre-chilled methanol. The mixtures were incubated on ice for 30 minutes and centrifuged at 13,000 rpm for 5 minutes. Supernatants were analyzed with an Infinity 1290-II HPLC equipped with a UV-Vis detector (Agilent Technologies, CA). The HPLC procedure utilized a ZORBAX Eclipse Plus C18 Rapid Resolution HD 1.8 μm particle 2.1×50 mm column (Agilent Technologies, CA), an isocratic flow of 1 mL min′ for a 9% acetonitrile and 91% aqueous solution containing 0.1% TFA, and an injection volume of 2 μL. The para-nitrophenyl absorbance signal was monitored at 315 nm.

[1] = cleavage by Pd2,6ST S232L/T356S/W361F

SMILES	neosialidase activity toward the sialoside, in words [1]	Relative sialidase activity	activity lower than toward Neu5Acα2-6GalβpNP (2) [1] [fold]	cleavage rate as percent of the rate of Neu5Acα2-6GalβpNP (2) [1]
CC(=O)N[C@H]1[C@H]([C@H](O)[C@H](O)CO)OC(OC[C@H]2O[C@@H](Oc3ccc([N+](=O)[O-])cc3)[C@H](O)[C@@H](O)[C@H]2O)(C(=O)O)C[C@@H]1O (stereo partly shown) [Compound 2, Neu5Acα2-6GalβpNP]	suitable substrate	1.0		
CC(=O)N[C@H]1[C@H]([C@H](O)[C@H](O)CO)OC(O[C@H]2[C@@H](O)[C@@H](CO)O[C@@H](Oc3ccc([N+](=O)[O-])cc3)[C@@H]2O)(C(=O)O)C[C@@H]1O (stereo partly shown) [Compound 3, Neu5Acα2-3GalβpNP]		2.5 × 10^−3	~400	
CC(=O)NC1C(O)CC(OC(CO)C(O)C2OC(OC3C(O)C(CO)OC(Oc4ccc([N+](=O)[O-])cc4)C3O)(C(=O)O)CC(O)C2NC(C)=O)(C(=O)O)OC1C(O)C(O)CO (stereo not shown) [Compound 4, Neu5Acα2-8Neu5Acα2-3GalβpNP]	not detected	3.3 × 10^−3		
O=C(O)C1(OCC2OC(Oc3ccc([N+](=O)[O-])cc3)C(O)C(O)C2O)CC(O)C(O)C(C(O)C(O)CO)O1 (stereo not shown) [Compound 5, Kdnα2-6GalβpNP]	not a suitable substrate	9.8 × 10^−4		0.1%
O=C(CO)NC1C(O)CC(OCC2OC(Oc3ccc([N+](=O)[O-])cc3)C(O)C(O)C2O)(C(=O)O)OC1C(O)C(O)CO (stereo not shown) [Compound 6, Neu5Gcα2-6GalβpNP]		1.2 × 10^−1		approximately 12%
CC(=O)NC1C(Oc2ccc([N+](=O)[O-])cc2)OC(COC2(C(=O)O)CC(O)C(NC(C)=O)C(C(O)C(O)CO)O2)C(O)C1O (stereo not shown) [Compound 7, Neu5Acα2-6GalNAcβpNP]	higher	1.9		

Reference: patent US11739305B2, “Sialyltransferase variants having neosialidase activity” (The Regents of the University of California, priority 2017, dated 2023)
